What was measured:
[1] = test system: adenomatous polyposis coli polyps; assay: Clinical prevention trial of polyp formation in APC patients; format: in vivo, human
Source text: The first clinical trial involved patients with APC using exisulind. In that study, each patient had already had his/her colon removed, except for a small section of colon adjacent the rectum (where the small intestine was attached) to preserve rectal function. However, such a patient commonly forms polyps in the small remaining colonic section, which polyps require periodic removal (e.g., by electrocautery).
That trial where exisulind was selected was a prevention trial designed to evaluate the anti-neoplastic characteristics of the drug by comparing the cumulative number of new polyps formed over twelve months by the drug and placebo groups. Eligible patients were those who form between 9 and 44 polyps per year. Patients were fully ablated (had all polyps removed) at the start of the study, at the end of 6 months and at the end of 12 months. The study enrolled thirty-four eligible patients. […] Based on the median number of polyps produced in the first six months of the study, patients treated with exisulind developed approximately one-third the number of polyps as patients treated with placebo (median values 9 polyps/year and 26 polyps/year, respectively; p=0.013). […]

[2] = test system: SW-480 colon adenocarcinoma cells; assay: Apoptosis induction determined by morphology; format: cell-based, human
Source text: Apoptosis occurs naturally during normal tissue turnover and during embryonic development of organs and limbs. Apoptosis also is induced by cytotoxic T-lymphocytes and natural killer cells, by ionizing radiation and by certain chemotherapeutic drugs. Inappropriate regulation of apoptosis is thought to play an important role in many pathological conditions including cancer, AIDS, or Alzheimer's disease, etc. Compounds can be screened for induction of apoptosis using cultures of tumor cells maintained under conditions as described above. Treatment of cells with test compounds involves either pre- or post-confluent cultures and treatment for two to seven days at various concentrations. Apoptotic cells are measured in both the attached and “floating” compartments of the cultures. Both compartments are collected by removing the supernatant, trypsinizing the attached cells, and combining both preparations following a centrifugation wash step (10 minutes, 2000 rpm). The protocol for treating tumor cell cultures with sulindac and related compounds to obtain a significant amount of apoptosis has been described in the literature. (See, Piazza, G. A., et al., Cancer Research, 55:31 10-16, 1995, which is incorporated herein by reference). The novel features include collecting both floating and attached cells, identification of the optimal treatment times and dose range for observing apoptosis, and identification of optimal cell culture conditions.
Following treatment with a compound, cultures can be assayed for apoptosis and necrosis by florescent microscopy following labeling with acridine orange and ethidium bromide. The method for measuring apoptotic cell number has previously been described by Duke & Cohen, “Morphological And Biochemical Assays Of Apoptosis,” Current Protocols In Immunology, Coligan et al., eds., 3.17.1-3.17.16 (1992, which is incorporated herein by reference).
For example, floating and attached cells can be collected by trypsinization and washed three times in PBS. Aliquots of cells can be centrifuged. […]

[3] = test system: PANC-1; assay: Neutral red growth inhibition; format: cell-based, human; conditions: PANC-1, Pancreas, HCl salt
Method: (§1) Compound B's activity is not confined to activity against colon cancer cell lines or animal models of colon cancer. It has a broad range of anti-neoplastic effects in various neoplastic cell lines. Various types of human cancer cell lines were propagated under sterile conditions in RPMI 1640 medium with 10% fetal bovine serum, 2 mM L-glutamine and sodium bicarbonate. To determine growth inhibitory effects of Compound B, cells were seeded in 96-well plates at a density of 1000 cells per well. […] The effect of the drug on tumor cell growth was determined using the neutral red cytotoxicity assay following five days of continuous treatment. Neutral red is a dye that is selectively taken up by viable cells by an ATP-dependent transport mechanism.

[4] = test system: K-562; assay: Neutral red growth inhibition; format: cell-based, human; conditions: K-562, Leukemia, HCl salt
Method: as §1

[5] = test system: Molt-4; assay: Neutral red growth inhibition; format: cell-based, human; conditions: Molt-4, Leukemia, HCl salt
Method: as §1

[6] = test system: RPMI-8226; assay: Neutral red growth inhibition; format: cell-based, human; conditions: RPMI-8226, Myeloma, HCl salt
Method: as §1

[7] = test system: SW-480 cell line; assay: Tumor cell growth inhibition; format: cell-based, human
Source text: In an alternate embodiment, the method of the present invention involves further determining whether the compound reduces the growth of tumor cells. Various cell lines can be used in the sample depending on the tissue to be tested. For example, these cell lines include: SW-480—colonic adenocarcinoma; HT-29—colonic adenocarcinoma, A-427—lung adenocarcinoma carcinoma; MCF-7—breast adenocarcinoma; and UACC-375—melanoma line; and DU145—prostrate carcinoma. Cytotoxicity data obtained using these cell lines are indicative of an inhibitory effect on neoplastic lesions. These cell lines are well characterized, and are used by the United States National Cancer Institute in their screening program for new anti-cancer drugs.
A compound's ability to inhibit tumor cell growth can be measured using the HT-29 human colon carcinoma cell line obtained from ATCC. […] After six days in culture, the cells are fixed by the addition of cold trichloroacetic acid to a final concentration of 10% and protein levels are measured using the sulforhodamine B (SRB) calorimetric protein stain assay as previously described by Skehan, P., Storeng, R., Scudiero, D., Monks, A., McMahon, J., Vistica, D., Warren, J. T., Bokesch, H., Kenney, S., and Boyd, M. R., “New Colorimetric Assay For Anticancer-Drug Screening,” J. Natl. Cancer Inst. […]
Preferably, an IC50 value is determined and used for comparative purposes. […]

Row | Structure (SMILES) | median number of polyps ([1]; entire 12 months of the study) [polyps/year] | median number of polyps ([1]; first six months of the study) [polyps/year] | % Apoptosis ([2]; 0.35 μM) [%] | % Apoptosis ([2]; 0.7 μM) [%] | % Apoptosis ([2]; 1.5 μM) [%] | GI50 [3] [nM] | GI50 [4] [nM] | GI50 [5] [nM] | GI50 [6] [nM] | IC50 [7] [nM]
1 | CC1=C(CC(=O)O)c2cc(F)ccc2/C1=C\c1ccc(S(C)(=O)=O)cc1 [exisulind, 5-fluoro-2-methyl-1-(p-methylsulfonylbenzylidene)-3-indenylacetic acid] | 18 | 9 |  |  |  |  |  |  |  | 
2 | CC1=C(CC(=O)NCc2ccccc2)c2cc(F)ccc2/C1=C\c1ccncc1.Cl [Compound B, (Z)-5-fluoro-2-methyl-(4-pyridylidene)-3-(N-benzyl)indenylacetamide hydrochloride] |  |  | 16 | 27 | 88 | 2200 | 1800 | 1600 | 1200 | 700
